Assay results reported in US20110281928A1, “Process for the preparation of zofenopril and its pharmaceutically acceptable salts thereof” (GLENMARK GENERICS LTD, priority 2009, published 2011).
Where a name gives a salt, the structure may show the parent alone.

Legend:
Assay type in all cases: physicochemical
Bulk and tapped density = details: Example 5 product
[1] = Particle size distribution by laser diffraction
Excerpt: The D10, D50, and D90 values are useful ways for indicating a particle size distribution. D90 is a size value where at least 90 percent of the particles have a size smaller than the stated value. Likewise D10 refers to 10 percent of the particles having a size smaller than the stated value. D50 refers to at least 50 percent of the particles having a size smaller than the stated value and D [4,3] value refers to a mean particle size. Methods for determining D10, D50, D90 and D [4,3] include those using laser light diffraction with equipment sold by Malvern Instruments ltd.
As used herein, “crystalline particles” means any combination of single crystals, aggregates and agglomerates. As used herein “Particle Size Distribution (P.S.D.)” means the cumulative volume size distribution of equivalent spherical diameters as determined by laser diffraction at 1 bar dispersive pressure in a SympatecHelos equipment. “Mean particle size distribution, i.e., d (0.5)” correspondingly, means the median of said particle size distribution.

[2] = Solubility in organic solvents (statement)
[3] = Specific surface area by B.E.T. nitrogen absorption
Excerpt: Specific surface area is defined in units of square meters per gram (m^2/g). It is usually measured by nitrogen absorption analysis. In this analysis, nitrogen is absorbed on the surface of the substance. The amount of the absorbed nitrogen (as measured during the absorption or the subsequent desorption process) is related to the surface area via a formula known as the B. ET. formula. BET Surface Area Analyser Model SAA-2000, specifically designed for BET_Surface Area Analysis.
The Specific Surface Area is expressed in meters square per gram of a sample. It is a measure of area covered by Nitrogen gas adsorbed in a mono-layer form.

With C[C@H](CSC(=O)c1ccccc1)C(=O)N1C[C@@H](Sc2ccccc2)C[C@H]1C(=O)O [zofenopril calcium, (4S)-N-[3-(Benzoylsulfanyl)-2(S)-methylpropionyl]-4-(phenylsulfanyl)-L-proline calcium salt] as the compound, how does the “Bulk density (Tapped)” value (Bulk and tapped density) read?
Its value is 0.282 gm/ml.

What about the “Bulk density (untapped)” value (Bulk and tapped density) of the same compound?
Its value is 0.201 gm/ml.

And the “Particle size distribution d 10” value ([1]; Example 5 product)?
The value was 3.902 μ.

What about the “Particle size distribution d 50” value ([1]; Example 5 product) of the same compound?
The value was 12.088 μ.

What about the “Particle size distribution d90” value ([1]; Example 5 product) of the same compound?
Its value is 33.858 μ.

What about the “Mean particle size distribution d (0.5)” value ([1]; crystal particles, description) of the same compound?
Its value is 12.088 μm.

What about the “Particle size distribution d (0.1)” value ([1]; crystal particles, description) of the same compound?
Its value is 3.902 μm.

What about the “Particle size distribution d (0.9)” value ([1]; crystal particles, description) of the same compound?
The value was 33.858 μm.

And the “Solubility in organic solvents” value [2]?
The value was “insoluble”.

And the “Specific surface area by B.E.T” value ([3]; Example 5 product)?
The value was 14.13 m^2/g.

And the “Specific surface area, as measured by B.E.T.” value ([3]; crystal particles, description)?
Its value is “about 14.13 m^2/gm”.
